Measurements as given in ChEMBL document CHEMBL3991943, “Pharmaceutical formulations comprising salts of a protein kinase inhibitor and methods of using same” (2013).

Legend:
Rattus norvegicus [1] = experiment: Chronic toxicity in po dosed male rat assessed as severely toxic dose administered daily for 28 days; type: organism-based; conditions: in vivo, 672 h
Mus musculus = experiment: Toxicity in nude mouse xenografted with human OVCAR3 cells assessed as mortality at 100 to 200 mg/kg, po qd measured on day 5,6,7,20,27 during compound dosing in presence of cisplatin dosed every 7 days for 28 days; type: organism-based; conditions: in vivo
[2] = Solubility of the compound in glycerol; type: physicochemical
Canis familiaris [3] = experiment: Chronic toxicity in dog assessed as effect on serum troponin 1 levels up to 300 mg/kg/day, po administered for 28 days measured during compound dosing; type: organism-based, Canis lupus familiaris; conditions: in vivo, 672 h
Rattus norvegicus [4] = experiment: Acute toxicity in Sprague-Dawley rat assessed as clinical abnormalities at 100 to 2000 mg/kg administered as single dose via oral gavage measured 1 to 72 hrs post dose; type: organism-based; conditions: in vivo
Rattus norvegicus [5] = experiment: Chronic toxicity in male rat assessed as effect on organs at 200 mg/kg/day, po administered for 28 days; type: organism-based; conditions: in vivo, 672 h
Rattus norvegicus [6] = experiment: Chronic toxicity in male rat assessed as soft feces at 20 to 200 mg/kg/day, po administered for 28 days; type: organism-based; conditions: in vivo, 672 h
Canis familiaris [7] = experiment: Chronic toxicity in dog assessed as hematological changes up to 300 mg/kg/day, po administered for 28 days measured during compound dosing; type: organism-based, Canis lupus familiaris; conditions: in vivo, 672 h
Rattus norvegicus [8] = experiment: Chronic toxicity in male rat assessed as ophthalmologic changes at 200 mg/kg/day, po administered for 28 days; type: organism-based; conditions: in vivo, 672 h
Canis familiaris [9] = experiment: Chronic toxicity in dog assessed as histopathological alterations in cardiac tissues up to 300 mg/kg/day, po administered for 28 days; type: organism-based, Canis lupus familiaris; conditions: in vivo, 672 h
Canis familiaris [10] = experiment: Chronic toxicity in male dog assessed as discolored feces at 30 to 300 mg/kg/day, po administered for 28 days; type: organism-based, Canis lupus familiaris; conditions: in vivo, 672 h
OVCAR-3 [11] = experiment: Antitumor activity against human OVCAR3 cells xenografted in athymic nude mouse assessed as tumor growth at 100 to 200 mg/kg, po qd administered for 3 days in presence of 5 mg/kg cisplatin dosed every 7 days for 28 days (reference value: 78.04 mm3/day); type: functional
Rattus norvegicus [12] = experiment: Chronic toxicity in female rat assessed as hunched posture at 6 to 100 mg/kg/day, po administered for 28 days; type: organism-based; conditions: in vivo, 672 h
A549 [13] = experiment: Suppression of carboplatin induced Rad51 expression in human A549 cells at 3.82 uM after 24 hrs by probing blot analysis; type: functional; conditions: A549, 24 h
Rattus norvegicus [14] = experiment: Chronic toxicity in male rat assessed as decrease in triglyceride levels at 200 mg/kg/day, po administered for 28 days; type: organism-based; conditions: in vivo, 672 h
Canis familiaris [15] = experiment: Chronic toxicity in male dog assessed as increase in soft feces/diarrhea at 100 to 300 mg/kg/day, po administered for 28 days; type: organism-based, Canis lupus familiaris; conditions: in vivo, 672 h
Rattus norvegicus [16] = experiment: Chronic toxicity in female rat assessed as decrease in food consumption at 60 to 100 mg/kg/day, po administered for 28 days; type: organism-based; conditions: in vivo, 672 h
Canis familiaris [17] = experiment: Chronic toxicity in female dog assessed as increase in emesis at 300 mg/kg/day, po administered for 28 days; type: organism-based, Canis lupus familiaris; conditions: in vivo, 672 h
Canis familiaris [18] = experiment: Acute toxicity in dog at 30 to 2000 mg/kg, po administered as single dose capsule measured over 24 hrs; type: organism-based, Canis lupus familiaris; conditions: in vivo
A549 [19] = experiment: Suppression of carboplatin induced Rad51 expression in human A549 cells at 0.71 uM after 24 hrs by probing blot analysis; type: functional; conditions: A549, 24 h
Rattus norvegicus [20] = experiment: Chronic toxicity in male rat assessed as sporadic alterations in organ weight at 200 mg/kg/day, po administered for 28 days; type: organism-based; conditions: in vivo, 672 h
Canis familiaris [21] = experiment: Chronic toxicity in male dog assessed as mucoid feces at 30 to 300 mg/kg/day, po administered for 28 days; type: organism-based, Canis lupus familiaris; conditions: in vivo, 672 h
Canis familiaris [22] = experiment: Acute toxicity in dog assessed as mortality at 30 to 2000 mg/kg, po administered as single dose capsule measured over 24 hrs; type: organism-based, Canis lupus familiaris; conditions: in vivo
Rattus norvegicus [23] = experiment: Chronic toxicity in female rat assessed as hematological changes at 60 to 100 mg/kg/day, po administered for 28 days; type: organism-based; conditions: in vivo, 672 h
Rattus norvegicus [24] = experiment: Chronic toxicity in female rat assessed as weight gain at 6 to 100 mg/kg/day, po administered for 28 days measured during compound dosing; type: organism-based; conditions: in vivo, 672 h
Canis familiaris [25] = experiment: Chronic toxicity in dog assessed as ophthalmic lesions up to 300 mg/kg/day, po administered for 28 days; type: organism-based, Canis lupus familiaris; conditions: in vivo, 672 h
Rattus norvegicus [26] = experiment: Chronic toxicity in male rat assessed as decrease in food consumption at 200 mg/kg/day, po administered for 28 days; type: organism-based; conditions: in vivo, 672 h
Rattus norvegicus [27] = experiment: Chronic toxicity in female rat assessed as sporadic occurrence of hair loss at 6 to 100 mg/kg/day, po administered for 28 days; type: organism-based; conditions: in vivo, 672 h
Canis familiaris [28] = experiment: Chronic toxicity in dog assessed as electrocardiogram changes up to 300 mg/kg/day, po administered for 28 days; type: organism-based, Canis lupus familiaris; conditions: in vivo, 672 h
[29] = Chronic toxicity in po dosed female rat assessed as no observable adverse effect level administered daily for 28 days; type: organism-based; conditions: in vivo
Canis familiaris [30] = experiment: Chronic toxicity in female dog assessed as soft feces/diarrhea at 100 to 300 mg/kg/day, po administered for 28 days; type: organism-based, Canis lupus familiaris; conditions: in vivo, 672 h
Rattus norvegicus [31] = experiment: Chronic toxicity in female rat assessed as effect on organs at 60 to 100 mg/kg/day, po administered for 28 days; type: organism-based; conditions: in vivo, 672 h
Canis familiaris [32] = experiment: Chronic toxicity in dog assessed as mortality up to 300 mg/kg/day, po administered for 28 days; type: organism-based, Canis lupus familiaris; conditions: in vivo, 672 h
Rattus norvegicus [33] = experiment: Chronic toxicity in male rat assessed as decrease in glucose levels at 200 mg/kg/day, po administered for 28 days; type: organism-based; conditions: in vivo, 672 h
OVCAR-3 [34] = experiment: Induction of DNA damage in human OVCAR3 cells assessed as increase in gamma-H2AX levels at 10 uM in presence of topotecan; type: functional
Canis familiaris [35] = experiment: Chronic toxicity in dog assessed as urinalysis parameters up to 300 mg/kg/day, po administered for 28 days measured during compound dosing; type: organism-based, Canis lupus familiaris; conditions: in vivo, 672 h
Rattus norvegicus [36] = experiment: Chronic toxicity in male rat assessed as decrease in food consumption at 200 mg/kg/day, po administered for 28 days measured after cessation of dosing; type: organism-based; conditions: in vivo, 672 h
Rattus norvegicus [37] = experiment: Chronic toxicity in male rat assessed as hunched posture at 20 to 200 mg/kg/day, po administered for 28 days; type: organism-based; conditions: in vivo, 672 h
[38] = Tmax in rat at 25 mg/kg administered via oral gavage; type: ADME, organism-based; conditions: in vivo
[39] = Tmax in male rat at 5 mg/kg, iv; type: ADME, organism-based; conditions: in vivo
Canis familiaris [40] = experiment: Chronic toxicity in dog assessed as effect on food consumption up to 300 mg/kg/day, po administered for 28 days measured during compound dosing; type: organism-based, Canis lupus familiaris; conditions: in vivo, 672 h
[41] = Cmax in female rat at 5 mg/kg, iv at 5 mins; type: ADME, organism-based; design: dose 5 mg/kg, route intravenous; conditions: in vivo
Rattus norvegicus [42] = experiment: Chronic toxicity in female rat assessed as sporadic alterations in organ weight at 60 to 100 mg/kg/day, po administered for 28 days; type: organism-based; conditions: in vivo, 672 h

Cl.S=C(NCc1ccc2c(c1)OCO2)N1CCN(c2ncnc3c2oc2ccccc23)CC1 [AMUVATINIB HYDROCHLORIDE]
Activity (Rattus norvegicus [1]): 200 mg/kg/day | Activity (Mus musculus): Toxic | solubility [2]: 4000 µg/mL | Activity (Canis familiaris [3]): Non-Toxic | Activity (Rattus norvegicus [4]): Non-Toxic | Activity (Rattus norvegicus [5]): Non-Toxic | Activity (Rattus norvegicus [6]): Toxic | Activity (Canis familiaris [7]): Non-Toxic | Activity (Rattus norvegicus [8]): Non-Toxic | Activity (Canis familiaris [9]): Non-Toxic | Activity (Canis familiaris [10]): Toxic | Activity (OVCAR-3 [11]): 10.22 mm3/day | Activity (Rattus norvegicus [12]): Toxic | inhibition at 3.82 µM (A549 [13]): 42% | Activity (Rattus norvegicus [14]): Toxic | Activity (Canis familiaris [15]): Toxic | Activity (Rattus norvegicus [16]): Toxic | Activity (Canis familiaris [17]): Toxic | Activity (Canis familiaris [18]): Non-Toxic | inhibition at 0.71 µM (A549 [19]): 26% | Activity (Rattus norvegicus [20]): Toxic | Activity (Canis familiaris [21]): Toxic | Activity (Canis familiaris [22]): Non-Toxic | Activity (Rattus norvegicus [23]): Non-Toxic | Activity (Rattus norvegicus [24]): Toxic | Activity (Canis familiaris [25]): Non-Toxic | Activity (Rattus norvegicus [26]): Toxic | Activity (Rattus norvegicus [27]): Toxic | Activity (Canis familiaris [28]): Non-Toxic | NOAEL at 672 h [29]: 20 mg/kg/day | Activity (Canis familiaris [30]): Toxic | Activity (Rattus norvegicus [31]): Non-Toxic | Activity (Canis familiaris [32]): Non-Toxic | Activity (Rattus norvegicus [33]): Toxic | Activity (OVCAR-3 [34]): 113% | Activity (Canis familiaris [35]): Non-Toxic | Activity (Rattus norvegicus [36]): Non-Toxic | Activity (Rattus norvegicus [37]): Toxic | Tmax [38]: 30 to 720 min | Tmax [39]: 5 min | Activity (Canis familiaris [40]): Non-Toxic | Cmax [41]: 371 ng/mL | Activity (Rattus norvegicus [42]): Toxic
